Measured values: article PMC4340794, “Pharmacokinetic Study of 14-(3-Methylbenzyl)matrine and 14-(4-Methylbenzyl)matrine in Rat Plasma Using Liquid Chromatography-Tandem Mass Spectrometry” (PLoS ONE, 2015)

Columns and labels:
hepatoma = tested on: hepatoma; set-up: method as in earlier work; details: cited from earlier work; for tumor inhibition rate: previous pharmacological experiment
[1] = PK study using rats, oral administration, plasma levels by HPLC-MS/MS; assay type: in vivo, Sprague–Dawley rats; details: oral (gavage) 25 mg/kg, mean ± SD; for Tmax / AUC(0-t) / Cmax / half-life / k el / MRT last: Sprague-Dawley; for Tmax / AUC(0-t): rat, plasma, po, 25 mg/kg; for Cmax / half-life / k el / MRT last / CL / V: rat plasma; for k el: read-out: Ke (converted); for MRT last: read-out: MRT0−t (converted)
Procedure: HPLC analysis was performed using the Dionex UltiMate 3000 HPLC equipped with a binary pump, an on-line degasser, an auto-sampler and a column temperature controller. The chromatographic separations were performed using a Hypersil GOLD C18 column (100 mm × 2.1 mm, 1.9 μm particle size) protected by a C18 guard column (10 mm × 2.1 mm, 5 μm) at 40°C. The mobile phase consisted of acetonitrile:0.1% formic acid (65:35, v/v). The flow rate was set at 0.2 ml/min. Aliquots of 2 μl were injected into the HPLC system for analysis.
MS analysis was performed using a Thermo Scientific TSQ Quantum Access MAX triple-stage quadrupole mass spectrometer equipped with an electrospray ionization (ESI) source in the positive-ionization mode. The typical ion source parameters were as follows: spray voltage: 3500 V; sheath gas pressure (N2): 20 units; auxiliary gas pressure (N2): 5 units; ion transfer tube temperature: 350°C; collision gas (Ar): 1.5 mTorr; Q1/Q3 peak resolution: 0.7 Da; and scan width: 0.002 Da. The samples were analyzed via selective-reaction monitoring (SRM) of the ion pairs at m/z 343 → 148 for 3MBM, m/z 343 → 148 for 4MBM, or m/z 166 → 133 for the IS. The scan dwell time was set at 0.1 s for every channel. All data collected in the centroid mode were acquired and processed using Xcalibur 2.2 software (Thermo Fisher Scientific, Inc., USA).
Each plasma sample (100 μl) was mixed with 20 μl of the working IS solution in a 1.5-ml labeled microcentrifuge tube and was vortexed for 5 s. Then, 1000 μl of isopropanol:ethyl acetate (v/v, 25:75) was added, and each sample was vortexed for 1 min. Each tube was subsequently centrifuged at 12,000 × g for 10 min. The organic layer was transferred to another tube and evaporated to dryness at ambient temperature under a gentle stream of nitrogen. The residue was reconstituted in 100 μl of the mobile phase, and 2 μl of each sample was injected into the HPLC–MS/MS system for analysis.
Aqueous solutions of 3MBM and 4MBM were separately administered to 12 rats via gavage at 25 mg/kg (2.5 mg/ml aqueous solutions), which was equivalent to the dose administered to mice in our previous study. Serial blood samples (0.5 ml) were obtained at 0, 15, 30, 45, 60, 90, 120, 150, 240, 600, 960, and 1440 min after oral administration. All samples were placed in heparinized tubes. After centrifugation at 12,000 rpm and 4°C for 10 min, the plasma was collected and frozen at −20°C until analysis. The PK parameters were estimated according to a non-compartmental model using the TopFit 2.0 software package (Thomae, Germany). The elimination half-life (t1/2) was 0.693/ke, where ke, the elimination rate constant, was calculated by fitting the mean data at four terminal points of the plasma concentration profile to a log-linear regression equation using the least-squares method. The maximum drug plasma concentration (Cmax) and time to Cmax (Tmax) were directly determined from the observed data. The area under the plasma concentration–time curve from zero to the time of the final measurable sample (AUC0−t) was calculated using the linear-trapezoidal rule.

[2] = Stability of analytes in rat plasma samples (post-preparative, freeze–thaw, long-term cold storage); assay type: in vitro ADME; details: for Stability III R.E. / Stability III Concentration / Stability II R.E. / Stability II Concentration: plasma; for Stability III R.E. / Stability III Concentration: 60 days at -20° C; for Stability III Concentration / Stability II Concentration / Stability I Concentration: n = 6, mean ± SD; for Stability II R.E. / Stability II Concentration: three freeze-thaw cycles; for Stability I R.E. / Stability I Concentration: processed samples, auto-sampler 24 h
Procedure: Selectivity was assessed by comparing the chromatograms of six different batches of blank rat plasma to the corresponding spiked rat plasma. Linearity was assessed via weighted (1/x^2) analysis of the six different calibration curves. Intra- and inter-day precision (the relative standard deviation, RSD) and accuracy (the relative error, RE) were determined by analyzing the low-, intermediate-, and high-concentration QC samples (n = 6) on three different days. The matrix effect was investigated by comparing the peak areas of the analytes in the post-extraction spiked blank plasma samples at low and high analyte concentrations to the corresponding standard solutions. The extraction yield was determined by comparing the mean peak areas of the six extracted samples at low, intermediate, and high QC concentrations to the mean peak areas of the spike-after-extraction samples. Stability was assessed by analyzing the replicates (n = 6) of the low, intermediate and high QC samples during the sample storage and processing procedures. Freeze–thaw stability was determined after three freeze–thaw cycles. Post-preparation stability was estimated by analyzing the QC samples after 24 h at 4°C. Six aliquots of the QC samples were stored at −20°C for 60 days to determine their long-term stability.

Row | Tmax [1] [h] | AUC(0-t) ([1]; first AUC0-t line of Table 3) [ng·h/mL] | AUC(0-t) ([1]; second AUC0-t line of Table 3) [ng·h/mL] | Cmax [1] [ng/mL] | half-life [1] [h] | k el [1] [s⁻¹] | MRT last [1] [h] | CL [1] [mL/min] | V [1] [mL] | Stability III R.E. ([2]; spike 5 ng/ml) [%] | Stability III Concentration ([2]; spike 5 ng/ml) [ng/mL] | Stability II Concentration ([2]; spike 5 ng/ml) [ng/mL] | Stability I R.E. ([2]; spike 5 ng/ml) [%] | Stability I Concentration ([2]; spike 5 ng/ml) [ng/mL] | Stability III R.E. ([2]; spike 800 ng/ml) [%] | Stability III Concentration ([2]; spike 800 ng/ml) [ng/mL] | Stability II R.E. ([2]; spike 800 ng/ml) [%] | Stability II Concentration ([2]; spike 800 ng/ml) [ng/mL] | Stability I R.E. ([2]; spike 800 ng/ml) [%] | Compound | tumor inhibition rate (hepatoma) [%] | other results
1 | – | – | – | – | – | – | – | – | – | – | – | – | – | – | – | – | – | – | – | O=C1CCC[C@@H]2[C@H]3CCCN4CCC[C@@H](CN12)[C@@H]34 [MT, Matrine] | 39.69 | –
2 | 1.47 | 7210 | 7480 | 1050 ± 233 | 4.97 ± 0.583 | 3.92e-05 | 7.4 | 59 ± 13 | 25119 ± 5779 | -3.80 | 4.81 ± 0.42 | 5.15 ± 0.35 | -1.02 | 4.94 ± 0.46 | 1.22 | 809.8 ± 30.9 | -1.82 | 785.4 ± 46.8 | -1.03 | Cc1cccc(CC2CCC3C4CCCN5CCCC(CN3C2=O)C45)c1 (stereo not drawn) [3MBM, 14-(3-methylbenzyl)matrine] | 61.83 | anti-hepatoma activity in vivo (hepatoma; compared with cyclophosphamide): the same as those of the reference substances of cyclophosphamide; Stability II R.E. ([2]; spike 5 ng/ml): 2.87%; Stability I Concentration ([2]; spike 800 ng/ml): 791.7 ± 13.6 ng/mL; Stability III R.E. ([2]; spike 1600 ng/ml): 3.78%; Stability III Concentration ([2]; spike 1600 ng/ml): 1660 ± 63.9 ng/mL; Stability II R.E. ([2]; spike 1600 ng/ml): 2.46%; Stability II Concentration ([2]; spike 1600 ng/ml): 1639 ± 98.5 ng/mL; Stability I R.E. ([2]; spike 1600 ng/ml): -0.40%; Stability I Concentration ([2]; spike 1600 ng/ml): 1593 ± 39.9 ng/mL
3 | ~1.58 | 7680 | 7920 | 992 ± 275 | 4.92 ± 0.367 | 3.94e-05 | 7.67 | 59 ± 21 | 24361 ± 6921 | 2.60 | 5.13 ± 0.37 | 4.98 ± 0.23 | 3.20 | 5.16 ± 0.29 | -1.58 | 787.4 ± 24.1 | -1.30 | 789.6 ± 67.9 | 3.11 | Cc1ccc(CC2CCC3C4CCCN5CCCC(CN3C2=O)C45)cc1 (stereo not drawn) [4MBM, 14-(4-methylbenzyl)matrine] | 51.15 | Stability I Concentration ([2]; spike 800 ng/ml): 824.9 ± 37.2 ng/mL; Stability III R.E. ([2]; spike 1600 ng/ml): 2.23%; Stability III Concentration ([2]; spike 1600 ng/ml): 1636 ± 36.6 ng/mL; Stability II R.E. ([2]; spike 1600 ng/ml): -1.04%; Stability II Concentration ([2]; spike 1600 ng/ml): 1583 ± 99.2 ng/mL; Stability I R.E. ([2]; spike 1600 ng/ml): -1.42%; Stability I Concentration ([2]; spike 1600 ng/ml): 1577 ± 60.7 ng/mL
